Tests used:
[1] = test system: HEK-Blue IL-1β cells stimulated with hIL-1β; test: HEK293 reporter gene assay, hIL-1β as trigger; assay type: cell-based, human
Experimental: (§1) We used HEK-Blue™ IL-1β cells that respond specifically to IL-1 (# hkb-il1b, InvivoGen). These cells can detect IL-1α and IL-1β, as these cytokines bind to the same receptor, IL-1R1. They express a Seap reporter gene under the control of the IFN-β minimal promoter fused to five NF-kappaB and five AP-1 binding sites. Thirty microliters (300,000 cells/ml) per well of a 384-well plate were plated overnight. Cells were then stimulated with graded concentrations of cytokines (hIL-1α or hIL-1β) in the absence or presence of canakinumab (Ilaris®, ILARI LYVI 150MG 22GLW.012, batch U003 0409)[22], anakinra (Kineret®, 100 mg/0.67 ml injectable solution, Sobi)[23], or compound (S)-2 (compounds were pre-mixed for 1 h with the cytokine prior to addition to cells) and further incubated overnight before assessment of Seap activity.

[2] = test system: HEK-Blue IL-1β cells stimulated with hIL-1α; test: HEK293 reporter gene assay, hIL-1α as trigger; assay type: cell-based, human
Experimental: as §1

[3] = test system: normal human dermal fibroblasts stimulated with hIL-1β; test: Human fibroblast IL-6 release assay, hIL-1β stimulated; assay type: cell-based; set-up: IL-6, average / inhibition, replicates of EXP1, EXP2, EXP3 / inhibition, Mean / IL-1beta (mean, SD): mean readout (IL-6 release): unit not given here; details: for Mean OD (OD 450nm) / IL-1beta (mean, SD): mean readout (IL-6 release): Figure 3c; for Mean OD (OD 450nm): compound 1 nM; for IL-1beta (mean, SD): mean readout (IL-6 release): compound @ 1nM
Experimental: as §1
(§2) Normal human dermal fibroblasts (NHDF) from Clonetics^TM (LONZA, Cat # CC-2509 (NHDF-Neo), Lot # 0000234242, used at passage ≤14) were seeded at a density of 5000 cells/well in 100 μL of culture medium using 96-well plates (flat bottom, TCT). Treatment with cytokines/compounds was performed as described above. Cells were incubated for another 6 h and were subsequently spun down (320g/3 min). IL-6 was measured in the supernatant by ELISA (BioLegend, # 430503) or HTRF (Cisbio, #62HIL06PEH).

[4] = test system: normal human dermal fibroblasts stimulated with hIL-1α; test: Human fibroblast IL-6 release assay, hIL-1α stimulated; assay type: cell-based; set-up: IL-1alpha (mean, SD): mean readout (IL-6 release): unit not given here; details: for Mean OD (OD 450nm) / IL-1alpha (mean, SD): mean readout (IL-6 release): Figure 3c; for Mean OD (OD 450nm): compound 1 nM; for IL-1alpha (mean, SD): mean readout (IL-6 release): compound @ 1nM
Experimental: as §1, §2

## Cc1ccc2c(c1)NC(=O)[C@@]2(c1cn[nH]c1)c1cc(-c2ccc(C(=O)O)cc2C(=O)O)ccc1O [(S) 2]
[1]; IL-1beta 3.04596 pg/ml, inhibitor 50uM
  reporter gene assay signal, mean (Figure 3d): 0.06
[1]; IL-1beta 6.09192 pg/ml, inhibitor 50uM
  reporter gene assay signal, mean (Figure 3d): 0.06
[1]; IL-1beta 12.1838 pg/ml, inhibitor 50uM
  reporter gene assay signal, mean (Figure 3d): 0.06
[1]; IL-1beta 24.3677 pg/ml, inhibitor 50uM
  reporter gene assay signal, mean (Figure 3d): 0.08
[1]; IL-1beta 48.7353 pg/ml, inhibitor 50uM
  reporter gene assay signal, mean (Figure 3d): 0.1
[1]; IL-1beta 97.4707 pg/ml, inhibitor 50uM
  reporter gene assay signal, mean (Figure 3d): 0.17
[1]; IL-1beta 194.941 pg/ml, inhibitor 50uM
  reporter gene assay signal, mean (Figure 3d): 0.41
[1]; IL-1beta 389.883 pg/ml, inhibitor 50uM
  reporter gene assay signal, mean (Figure 3d): 0.84
[1]; IL-1beta 779.766 pg/ml, inhibitor 50uM
  reporter gene assay signal, mean (Figure 3d): 1.26
[1]; IL-1beta 1559.53 pg/ml, inhibitor 50uM
  reporter gene assay signal, mean (Figure 3d): 1.6
[1]; IL-1beta 3119.06 pg/ml, inhibitor 50uM
  reporter gene assay signal, mean (Figure 3d): 1.74
[1]; IL-1beta 6238.12 pg/ml, inhibitor 50uM
  reporter gene assay signal, mean (Figure 3d): 1.87
[1]; IL-1beta 12476.2 pg/ml, inhibitor 50uM
  reporter gene assay signal, mean (Figure 3d): 1.96
[1]; IL-1beta 24952.5 pg/ml, inhibitor 50uM
  reporter gene assay signal, mean (Figure 3d): 2.06
[1]; IL-1beta 49905 pg/ml, inhibitor 50uM
  reporter gene assay signal, mean (Figure 3d): 2.02
[2]; IL-1alpha 3.04596 pg/ml, inhibitor 50uM
  reporter gene assay signal, mean (Figure 3d): 0.08
[2]; IL-1alpha 6.09192 pg/ml, inhibitor 50uM
  reporter gene assay signal, mean (Figure 3d): 0.1
[2]; IL-1alpha 12.1838 pg/ml, inhibitor 50uM
  reporter gene assay signal, mean (Figure 3d): 0.15
[2]; IL-1alpha 24.3677 pg/ml, inhibitor 50uM
  reporter gene assay signal, mean (Figure 3d): 0.1
[2]; IL-1alpha 48.7353 pg/ml, inhibitor 50uM
  reporter gene assay signal, mean (Figure 3d): 0.59
[2]; IL-1alpha 97.4707 pg/ml, inhibitor 50uM
  reporter gene assay signal, mean (Figure 3d): 1.08
[2]; IL-1alpha 194.941 pg/ml, inhibitor 50uM
  reporter gene assay signal, mean (Figure 3d): 1.42
[2]; IL-1alpha 389.883 pg/ml, inhibitor 50uM
  reporter gene assay signal, mean (Figure 3d): 1.67
[2]; IL-1alpha 779.766 pg/ml, inhibitor 50uM
  reporter gene assay signal, mean (Figure 3d): 1.82
[2]; IL-1alpha 1559.53 pg/ml, inhibitor 50uM
  reporter gene assay signal, mean (Figure 3d): 1.88
[2]; IL-1alpha 3119.06 pg/ml, inhibitor 50uM
  reporter gene assay signal, mean (Figure 3d): 1.91
[2]; IL-1alpha 6238.12 pg/ml, inhibitor 50uM
  reporter gene assay signal, mean (Figure 3d): 1.96
[2]; IL-1alpha 12476.2 pg/ml, inhibitor 50uM
  reporter gene assay signal, mean (Figure 3d): 1.97
[2]; IL-1alpha 24952.5 pg/ml, inhibitor 50uM
  reporter gene assay signal, mean (Figure 3d): 2.03
[2]; IL-1alpha 49905 pg/ml, inhibitor 50uM
  reporter gene assay signal, mean (Figure 3d): 2.01

## anakinra: IL-1R1 antagonist [reference compound]
[1]; IL-1beta 3.04596 pg/ml, inhibitor 3nM
  reporter gene assay signal, mean (Figure 3d): 0.06
[1]; IL-1beta 6.09192 pg/ml, inhibitor 3nM
  reporter gene assay signal, mean (Figure 3d): 0.06
[1]; IL-1beta 12.1838 pg/ml, inhibitor 3nM
  reporter gene assay signal, mean (Figure 3d): 0.06
[1]; IL-1beta 24.3677 pg/ml, inhibitor 3nM
  reporter gene assay signal, mean (Figure 3d): 0.06
[1]; IL-1beta 48.7353 pg/ml, inhibitor 3nM
  reporter gene assay signal, mean (Figure 3d): 0.06
[1]; IL-1beta 97.4707 pg/ml, inhibitor 3nM
  reporter gene assay signal, mean (Figure 3d): 0.07
[1]; IL-1beta 194.941 pg/ml, inhibitor 3nM
  reporter gene assay signal, mean (Figure 3d): 0.08
[1]; IL-1beta 389.883 pg/ml, inhibitor 3nM
  reporter gene assay signal, mean (Figure 3d): 0.09
[1]; IL-1beta 779.766 pg/ml, inhibitor 3nM
  reporter gene assay signal, mean (Figure 3d): 0.17
[1]; IL-1beta 1559.53 pg/ml, inhibitor 3nM
  reporter gene assay signal, mean (Figure 3d): 0.37
[1]; IL-1beta 3119.06 pg/ml, inhibitor 3nM
  reporter gene assay signal, mean (Figure 3d): 0.68
[1]; IL-1beta 6238.12 pg/ml, inhibitor 3nM
  reporter gene assay signal, mean (Figure 3d): 1.15
[1]; IL-1beta 12476.2 pg/ml, inhibitor 3nM
  reporter gene assay signal, mean (Figure 3d): 1.43
[1]; IL-1beta 24952.5 pg/ml, inhibitor 3nM
  reporter gene assay signal, mean (Figure 3d): 1.66
[1]; IL-1beta 49905 pg/ml, inhibitor 3nM
  reporter gene assay signal, mean (Figure 3d): 1.81
[2]; IL-1alpha 3.04596 pg/ml, inhibitor 3nM
  reporter gene assay signal, mean (Figure 3d): 0.06
[2]; IL-1alpha 6.09192 pg/ml, inhibitor 3nM
  reporter gene assay signal, mean (Figure 3d): 0.06
[2]; IL-1alpha 12.1838 pg/ml, inhibitor 3nM
  reporter gene assay signal, mean (Figure 3d): 0.06
[2]; IL-1alpha 24.3677 pg/ml, inhibitor 3nM
  reporter gene assay signal, mean (Figure 3d): 0.06
[2]; IL-1alpha 48.7353 pg/ml, inhibitor 3nM
  reporter gene assay signal, mean (Figure 3d): 0.06
[2]; IL-1alpha 97.4707 pg/ml, inhibitor 3nM
  reporter gene assay signal, mean (Figure 3d): 0.06
[2]; IL-1alpha 194.941 pg/ml, inhibitor 3nM
  reporter gene assay signal, mean (Figure 3d): 0.07
[2]; IL-1alpha 389.883 pg/ml, inhibitor 3nM
  reporter gene assay signal, mean (Figure 3d): 0.08
[2]; IL-1alpha 779.766 pg/ml, inhibitor 3nM
  reporter gene assay signal, mean (Figure 3d): 0.09
[2]; IL-1alpha 1559.53 pg/ml, inhibitor 3nM
  reporter gene assay signal, mean (Figure 3d): 0.15
[2]; IL-1alpha 3119.06 pg/ml, inhibitor 3nM
  reporter gene assay signal, mean (Figure 3d): 0.24
[2]; IL-1alpha 6238.12 pg/ml, inhibitor 3nM
  reporter gene assay signal, mean (Figure 3d): 0.46
[2]; IL-1alpha 12476.2 pg/ml, inhibitor 3nM
  reporter gene assay signal, mean (Figure 3d): 0.84
[2]; IL-1alpha 24952.5 pg/ml, inhibitor 3nM
  reporter gene assay signal, mean (Figure 3d): 1.11
[2]; IL-1alpha 49905 pg/ml, inhibitor 3nM
  reporter gene assay signal, mean (Figure 3d): 1.47
[3]
  block of hIL-1β driven IL-6 release: could block the release of IL-6
[3]; hu IL-1b 0 pg/mL
  Mean OD (OD 450nm): 0.034
  IL-1beta (mean, SD): mean readout (IL-6 release): 0
[3]; hu IL-1b 40 pg/mL
  Mean OD (OD 450nm): 0.047
  IL-1beta (mean, SD): mean readout (IL-6 release): 0
[3]; hu IL-1b 80 pg/mL
  Mean OD (OD 450nm): 0.079
  IL-1beta (mean, SD): mean readout (IL-6 release): 0
[3]; hu IL-1b 120 pg/mL
  Mean OD (OD 450nm): 0.102
  IL-1beta (mean, SD): mean readout (IL-6 release): 0
[3]; hu IL-1b 160 pg/mL
  Mean OD (OD 450nm): 0.157
  IL-1beta (mean, SD): mean readout (IL-6 release): 404.5
[3]; hu IL-1b 200 pg/mL
  Mean OD (OD 450nm): 0.162
  IL-1beta (mean, SD): mean readout (IL-6 release): 439.1
[4]
  effect on hIL-1α driven IL-6 release: could block the release of IL-6
[4]; hu IL-1A 0 pg/mL
  Mean OD (OD 450nm): 0.042
[4]; hu IL-1A 40 pg/mL
  Mean OD (OD 450nm): 0.05
[4]; hu IL-1A 80 pg/mL
  Mean OD (OD 450nm): 0.061
[4]; hu IL-1A 120 pg/mL
  Mean OD (OD 450nm): 0.067
[4]; hu IL-1A 160 pg/mL
  Mean OD (OD 450nm): 0.073
[4]; hu IL-1A 200 pg/mL
  Mean OD (OD 450nm): 0.103
[4]; hu IL-1a 0 pg/mL
  IL-1alpha (mean, SD): mean readout (IL-6 release): 0
[4]; hu IL-1a 40 pg/mL
  IL-1alpha (mean, SD): mean readout (IL-6 release): 0
[4]; hu IL-1a 80 pg/mL
  IL-1alpha (mean, SD): mean readout (IL-6 release): 0
[4]; hu IL-1a 120 pg/mL
  IL-1alpha (mean, SD): mean readout (IL-6 release): 0
[4]; hu IL-1a 160 pg/mL
  IL-1alpha (mean, SD): mean readout (IL-6 release): 0
[4]; hu IL-1a 200 pg/mL
  IL-1alpha (mean, SD): mean readout (IL-6 release): 3.7

Source: PMC10484922, “Discovery of a selective and biologically active low-molecular weight antagonist of human interleukin-1β” (Nature Communications, 2023)
